In data set [1] the test system is Trichophyton mentagrophytes. Kind of data set: Minimum inhibitory concentration, agar plate dilution method (Sabouraud dextrose medium). It counts as cell-based. Conditions: T.m. How it is done:
(§1) The minimum inhibition concentration was assayed by the agar plate dilution method using Sabouraud dextrose medium.

In a further data set the test system is Candida albicans. The description is as above. The settings on record: C.a. In kind it is cell-based. How it is done: as §1
For another data set, the system named is Microsporum canis. The description is as above. Conditions: M.c. It counts as cell-based. As for the experimental part: as §1
For a further data set, the system named is Trichophyton rubrum. Described as above. In kind it is cell-based. The settings on record: T.r. How it is done:
as §1

Data set [2] is described as follows: Stability in ethanol (residual ratio by HPLC). In kind it is physicochemical. The settings on record: 50% ethanol, 50% ethanol solution, 0.01%; for remaining at 2160 h: 3 months; for remaining at 288 h: 12 days. How it is done: The residual ratio was determined under the following conditions by the HPLC method.
*Measured in a 50% ethanol solution (sample concentration: 0.01%)
Column: STR ODSM 4.6 × 150 mm
Injection volume: 40 μl
Mobile phase: CH3 CN:H2 O (1:1)
Temperature: room temperature

For data set [3] the following is noted: prior-art compounds; cited from earlier work.
A further data set relates to fungi. The settings on record: prior-art compounds; cited from earlier work.

≈ marks a conversion by molar mass, not a printed value.

`C[C@H](N=[N+]([O-])C=Cc1ccc(OCC#CI)cc1)[C@@H](C)O` [5 (2R), 2(R)-3(S)-3-(4-(3-iodo-2-propynyloxy)styryl-ONN-azoxy)-2-butanol]: the MIC turned out to be 0.8 mg/L (≈ 2 µM) in data set [1], 12.5 mg/L (≈ 31.2 µM) against Candida albicans, 1.6 mg/L (≈ 4 µM) with Microsporum canis and 1.6 mg/L (≈ 4 µM) with Trichophyton rubrum. Further, the share remaining at 2160 h in data set [2] (4° C.) worked out at 99.6%; in data set [2] (25° C.) it was 99.3%; in data set [2] (40° C.), 92.7%; in data set [2] (pH 4, pH 4, 40° C.), 101%; in data set [2] (pH 6, pH 6, 40° C.) it was 101%; in data set [2] (pH 8, pH 8, 40° C.), 83.6%.
In the case of `CCCC/C=C/[N+]([O-])=N[C@@H](C)C(C)=O` [KA-7367A], in data set [3], the “stability (in words)” value was “unstable”. The “antifungal activity (in words)” value in the data set on fungi is recorded as “excellent antifungal activity”.
As to `C#CCOc1ccc(C=C[N+]([O-])=NC(C)C(C)O)cc1` (centres unmarked) [Example 3, 3-(4-(2-propynyloxy)styryl-ONN-azoxy)-2-butanol], the MIC against Candida albicans turned out to be 25 mg/L (≈ 91.1 µM); against Microsporum canis it was 0.2 mg/L (≈ 0.729 µM); in the data set on Trichophyton rubrum, 0.2 mg/L (≈ 0.729 µM).
For the molecule `CC(O)C(C)N=[N+]([O-])c1ccc(OCC#CI)cc1` (centres unmarked) [Example 11, 3-(4-(3-iodo-2-propynyloxy)phenyl-ONN-azoxy)-2-butanol], the MIC is 1.6 mg/L (≈ 4.28 µM) in data set [1], 6.3 mg/L (≈ 16.8 µM) in the data set on Candida albicans, 0.8 mg/L (≈ 2.14 µM) in the data set on Microsporum canis and 1.6 mg/L (≈ 4.28 µM) in the data set on Trichophyton rubrum.
Regarding `CC(=C[N+]([O-])=NC(C)COCC#CI)c1ccc(Cl)cc1` (centres unmarked) [Example 1, 2-(2-(4-chlorophenyl)-1-propenyl-ONN-azoxy)-1-(3-iodo-2-propynyloxy)propan], the MIC worked out at 0.4 mg/L (≈ 0.955 µM) in data set [1], 50 mg/L (≈ 119 µM) with Candida albicans, 1.6 mg/L (≈ 3.82 µM) with Microsporum canis and 0.8 mg/L (≈ 1.91 µM) in the data set with Trichophyton rubrum.
Take `C[C@H](O)[C@H](C)N=[N+]([O-])C=Cc1ccc(OCC#CI)cc1` [5 (2S), 2(S)-3(S)-3-(4-(3-iodo-2-propynyloxy)styryl-ONN-azoxy)-2-butanol]: the MIC is 0.8 mg/L (≈ 2 µM) in data set [1], 6.3 mg/L (≈ 15.7 µM) in the data set on Candida albicans, 1.6 mg/L (≈ 4 µM) against Microsporum canis and 1.6 mg/L (≈ 4 µM) with Trichophyton rubrum. The fraction remaining at 2160 h in data set [2] (4° C.) came to 99.8%; in data set [2] (25° C.), 97.4%; in data set [2] (40° C.), 86.1%; in data set [2] (pH 4, pH 4, 40° C.), 100%; in data set [2] (pH 6, pH 6, 40° C.), 99.1%; in data set [2] (pH 8, pH 8, 40° C.), 74.2%.
As to `CC(=NO)[C@H](C)N=[N+]([O-])/C=C/c1ccc(OCC#CI)cc1` [Control, reference compound], the amount remaining at 288 h turned out to be 99.3% in data set [2] (4° C.); 95.8% in data set [2] (25° C.); 96.6% in data set [2] (40° C.); 0% in data set [2] (pH 4, pH 4, 40° C.); 79.7% in data set [2] (pH 6, pH 6, 40° C.); 91.4% in data set [2] (pH 8, pH 8, 40° C.).
For `CC(=C[N+]([O-])=NC(C)C(C)OCC#CI)c1ccccc1Cl` (centres unmarked) [Example 2, 3-(2-(2-chlorophenyl)-1-propenyl-ONN-azoxy)-2-(3-iodo-2-propynyloxy)butane], the MIC in data set [1] was found to be 1.6 mg/L (≈ 3.7 µM); against Candida albicans it was 50 mg/L (≈ 116 µM); in the data set with Microsporum canis, 1.6 mg/L (≈ 3.7 µM); against Trichophyton rubrum, 1.6 mg/L (≈ 3.7 µM).
With `C[C@H](N=[N+]([O-])c1ccc(OCC#CI)cc1)[C@@H](C)O` [Example 17, 2(R)-3(S)-3-(4-(3-iodo-2-propynyloxy)phenyl-ONN-azoxy)-2-butanol], the MIC in data set [1] amounted to 1.6 mg/L (≈ 4.28 µM); with Candida albicans, 6.3 mg/L (≈ 16.8 µM); against Microsporum canis it was 0.8 mg/L (≈ 2.14 µM); in the data set on Trichophyton rubrum, 1.6 mg/L (≈ 4.28 µM). Besides, the share remaining at 2160 h in data set [2] (4° C.) turned out to be 100%; in data set [2] (25° C.), 99.4%; in data set [2] (40° C.), 100%; in data set [2] (pH 4, pH 4, 40° C.), 100%; in data set [2] (pH 6, pH 6, 40° C.), 99.9%; in data set [2] (pH 8, pH 8, 40° C.) it was 100%. Further, the fraction remaining at 288 h came to 100% in data set [2] (4° C.); 102% in data set [2] (25° C.); 99.8% in data set [2] (40° C.); 99.7% in data set [2] (pH 4, pH 4, 40° C.); 100% in data set [2] (pH 6, pH 6, 40° C.); 100% in data set [2] (pH 8, pH 8, 40° C.).

Usually MIC stands for the lowest concentration found to suppress growth.

The record behind these values is patent US5541169A, “Azoxy compound” (Kowa Company, Ltd., priority 1992, dated 1996).
